Measurements as given in US10208060B2, “Inhibitors of HIF prolyl hydroxylase” (Merck Sharp & Dohme Corp., priority 2014, dated 2019).

Target: human HIF-PHD2 (Homo sapiens (Human), UniProt Q9GZT9)
Experiment: HIF-PHD2 inhibition assay (hydroxylation of HIF-1α peptide, time resolved fluorescence)
Format: biochemical
Conditions: FLAG-tagged full length PHD2; 0.2 μM 2-oxoglutarate, 0.5 μM HIF-1α peptide; 45 minutes at room temperature
Experimental: To each well of a 384-well plate, 1 μL of test compounds in DMSO (final concentration ranging from 0.3 nM to 10 uM) were added into 20 μl of assay buffer (50 mM Tris pH 7.4/0.01% Tween-20/0.1 mg/ml bovine serum albumin/10 μM ferrous sulfate/1 mM sodium ascorbate/20 μg/ml catalase) containing 0.15 μg/ml FLAG-tagged full length PHD2 expressed in and purified from baculovirus-infected Sf9 cells. […] Purif.

human HIF-PHD2, sequence (Q9GZT9 whole entry): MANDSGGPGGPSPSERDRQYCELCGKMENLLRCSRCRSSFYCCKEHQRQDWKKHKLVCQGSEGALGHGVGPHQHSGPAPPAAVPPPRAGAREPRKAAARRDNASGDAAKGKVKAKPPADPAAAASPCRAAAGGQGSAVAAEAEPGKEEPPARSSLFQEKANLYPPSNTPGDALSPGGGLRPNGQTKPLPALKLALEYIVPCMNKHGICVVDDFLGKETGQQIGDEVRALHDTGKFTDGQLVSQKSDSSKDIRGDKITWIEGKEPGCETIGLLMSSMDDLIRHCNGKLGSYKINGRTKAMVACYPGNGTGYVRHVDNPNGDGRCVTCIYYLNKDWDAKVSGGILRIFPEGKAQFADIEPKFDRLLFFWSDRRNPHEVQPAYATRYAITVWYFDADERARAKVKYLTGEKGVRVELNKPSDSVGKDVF

Structure (SMILES) | IC50 [nM]
O=C(O)CNC(=O)c1c(O)c2c(n(-c3ccc(Br)cc3)c1=O)CSC2 [Example 11, 2-(1-(4-Bromophenyl)-4-hydroxy-2-oxo-1,2,5,7-tetrahydrothieno[3,4-b]pyridine-3-carboxamido)acetic acid] | 8.8
O=C(O)CNC(=O)c1c(O)c2c(n(-c3ccc(-c4ccc(OC(F)(F)F)cc4)cc3)c1=O)CSC2 [Example 12] | 10
